# From PMC10380488, “Cx43 Hemichannel and Panx1 Channel Modulation by Gap19 and ^10Panx1 Peptides” (International Journal of Molecular Sciences, 2023)
# “And” between values parts separate entries of the source, which are not always exact repeats. Equal entries are not always repeated. “Also recorded” adds a separate entry of the source.
# Assays:
# [1] = test system: Cx43 HCs; assay: Whole-cell patch-clamp, unitary Cx43 hemichannel current activity in HeLa-Cx43 cells; type: cell-based; conditions: for nominal open probability (NPo) of Cx43 HCs: preincubated 45 min, HeLa-Cx43, step −30 to +70 mV, 30 s, mean ± SEM, control 0.48 ± 0.02; for reduction of NPo of Cx43 HCs: vs control; for conductance γ of Cx43 HC, subconductance state, transition histogram / unitary conductance γ of Cx43 HC, fully open state, transition histogram: Figure 3B, mean ± SD
# Description: (§1) We used HeLa cells stably transfected with Cx43 (HeLa-Cx43 [56]); endogenous expression of Panx1 is very low or absent in non-transfected HeLa cells. C6 glioma cells stably transfected with Panx1 (C6-Panx1, C-terminally myc-tagged; kind gift of Dr Christian C. Naus, University of British Columbia, Canada) were used for the Panx1 channel studies; Cx43 expression is low or undetectable [61] in these cells. HeLa cells were maintained in Dulbecco’s modified Eagle’s medium (DMEM; Invitrogen, Gent, Belgium), and C6 cells were grown in DMEM:Ham’s F12 (1:1—Invitrogen, Merelbeke, Belgium), all supplemented with 10% fetal bovine serum (FBS), 2 mM glutamine, 10 U/mL penicillin, 10 µg/mL streptomycin and 0.25 µg/mL fungizone. Stable exogenous expressions were maintained by supplementation of 1 and 3 µg/mL puromycin (Sigma-Aldrich, Bornem, Belgium) for HeLa-Cx43 and C6-Panx1 cells, respectively. Stable transfectants were subcultured into puromycin-free medium 2 days prior to experimentation. Cells were maintained at 37 °C and 10% (HeLa-Cx43) or 5% (C6-Panx1) CO2.
# (§2) All experimental data were obtained with the patch-clamp technique in whole-cell recording mode on HeLa-Cx43 and C6-Panx1 cells. Extracellular solution was composed of the following (in mM): 150 NaCl, 4 CsCl, 2 CaCl2, 2 MgCl2, 2 pyruvic acid, 5 glucose and 5 HEPES at pH of 7.4, while the pipette solution consisted of the following (in mM): 125 CsCl, 10 sodium aspartate (NaAsp), 0.26 CaCl2, 1 MgCl2, 2 EGTA, 10 tetraethylammonium (TEA)-Cl and 5 HEPES at pH 7.2. The free Ca^2+ concentration of the pipette solution was estimated to be ~50 nM as calculated with WEBMAX (https://somapp.ucdmc.ucdavis.edu/pharmacology/bers/maxchelator/webmaxc/webmaxcS.htm; accessed on 20 September 2020). Whole-cell recording was performed under control conditions and in the presence of Gap19 or ^10Panx1. Gap19 was included in the pipette solution, while ^10Panx1 was added externally and preincubated for 45 min. Recordings were commenced 2 min after establishment of the whole-cell configuration. Currents were recorded with an EPC 7 PLUS patch-clamp amplifier (HEKA Elektronik, Germany). Unitary current activities were elicited by stepping the cells from a holding potential of −30 mV to a membrane potential (Vm) of +70 mV for 30 s. Data were digitized at 4 KHz using an NI USB-6221 data acquisition device (National Instruments, Austin, TX, USA) and WinWCP acquisition software designed by Dr. J. Dempster (University of Strathclyde, United Kingdom). Measured currents were filtered by a 7-pole Bessel low-pass filter at 1 KHz cut-off frequency. Transition analysis was performed as reported in [16]. Unitary channel conductances were determined from transition histograms as well as from all-point histograms and were obtained by fitting their frequencies to Gaussian distributions. Channel opening activity is expressed as nominal open probability NPo, denoting the number of active channels in the patch multiplied by the open probability.
# (§3) Data were processed using Clampfit version 11.2 (Molecular Devices, San Jose, USA) and HemiGUI software as previously described. Results are expressed as mean ± SEM (unless otherwise stated), with n giving the number of traces, N the number of cells, and N the number of experiments on different cell culture dishes. Multiple groups were compared by one-way analysis of variance with post-hoc Dunnett’s or Bonferroni multiple comparison tests, making use of GraphPad PRISM 5.0 (GraphPad Software, Inc., La Jolla, CA). Results were considered statistically significant when p ≤ 0.05 (*; # for p ≤ 0.05, **; ## for p ≤ 0.01, ***; ### for p ≤ 0.001, and ****; #### for p ≤ 0.0001).
# [2] = target: T1, Panx1 channels (Rattus norvegicus, UniProt P60570); assay: Whole-cell patch-clamp, unitary Panx1 channel current activity in C6-Panx1 cells; type: cell-based; conditions: for nominal open probability (NPo) of Panx1 channels: preincubated 45 min, C6-Panx1, step −30 to +70 mV, 30 s, mean ± SEM, control 0.37 ± 0.02; for reduction of NPo of Panx1 channels: vs control
# T1 construct: expressed in transfected cells; host or cells: C6 glioma cells (C6-Panx1), gift of Dr Christian C; Naus
# T1 sequence (P60570 whole entry): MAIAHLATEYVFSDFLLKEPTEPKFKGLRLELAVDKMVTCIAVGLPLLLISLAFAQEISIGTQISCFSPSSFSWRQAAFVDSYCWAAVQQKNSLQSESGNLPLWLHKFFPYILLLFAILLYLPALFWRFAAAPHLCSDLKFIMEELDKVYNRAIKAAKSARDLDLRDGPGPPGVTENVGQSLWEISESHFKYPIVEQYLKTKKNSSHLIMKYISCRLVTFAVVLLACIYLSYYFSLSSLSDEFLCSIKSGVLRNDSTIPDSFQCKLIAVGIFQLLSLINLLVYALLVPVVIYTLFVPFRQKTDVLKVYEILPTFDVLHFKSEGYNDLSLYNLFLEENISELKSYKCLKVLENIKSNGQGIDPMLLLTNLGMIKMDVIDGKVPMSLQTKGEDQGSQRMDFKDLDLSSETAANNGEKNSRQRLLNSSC
# Description: as §1, §2, §3
# [3] = test system: Panx1 channel; conditions: some evidence; cited from earlier work
# Description: The representative traces depicted in Figure 1A (enlarged display in Supplementary Figure S1) show unitary Panx1 current activities evoked by repeated (every 40 s) Vm steps from a holding potential of −30 mV to +70 mV (with a duration of 30 s) in voltage-clamp experiments (using whole-cell patch-clamp recording). Under control conditions, a single channel conductance of ~65 pS was observed as determined from the channel transition histograms shown in Figure 1B, i.e., below the 100 pS range, which is typical for voltage-dependent Panx1 channel-opening activity. We tested the effec ...
# [4] = test system: Cx46 HC; conditions: cited from earlier work
# Description: (§4) Connexins and pannexins are two ubiquitous but distinct protein families forming membrane hemichannels (HCs) and channels in the plasma membrane, respectively. They facilitate the exchange of ions and small molecules (MW ≤ 1.5 kDa) between the intracellular and the extracellular compartment upon opening. Among these respective families, connexin-43 (Cx43) and pannexin-1 (Panx1) are the most abundant isotypes in the human body expressed in a wide array of tissues. Panx1 and Cx43 have several common properties, including the following: (i) an analogous tetra-spanning transmembrane topology with ...
# [5] = target: T1, Panx1 channels; conditions: 200 µM extracellular; high extracellular K^+; cited from earlier work
# Description: as §4
# [6] = test system: Cx43 or Panx1 channels; conditions: 100 μM extracellular; HeLa cells expressing Cx43 or Panx1; cited from earlier work
# Description: as §4
# [7] = 100 μM ^10Panx1 extracellular, N = 12, n = 88
# [8] = 200 μM ^10Panx1 extracellular, N = 11, n = 97
sequence,measurement,setting,value
WRQAAFVDSY [^10Panx1],nominal open probability (NPo) of Cx43 HCs,"[1]; 100 μM ^10Panx1 extracellular, N = 12 cells, n = 88 traces",0.30 ± 0.03
same,reduction of NPo of Cx43 HCs,"[1]; 100 μM ^10Panx1 extracellular, significant",37%
same,nominal open probability (NPo) of Cx43 HCs,"[1]; 200 μM ^10Panx1 extracellular, N = 11 cells, n = 97 traces",0.08 ± 0.01
same,reduction of NPo of Cx43 HCs,[1]; 200 μM ^10Panx1 extracellular,~ 83% and 83%
same,nominal open probability (NPo) of Cx43 HCs,"[1]; 500 μM ^10Panx1 extracellular, N = 8 cells, n = 53 traces",0.03 ± 0.01
same,reduction of NPo of Cx43 HCs,[1]; 500 μM ^10Panx1 extracellular,94%
same,"conductance γ of Cx43 HC, subconductance state, transition histogram",[1]; [7],81 ± 29 pS
same,"unitary conductance γ of Cx43 HC, fully open state, transition histogram",[1]; [7],202 ± 57 pS
same,"conductance γ of Cx43 HC, subconductance state, transition histogram",[1]; [8],78 ± 27 pS
same,"unitary conductance γ of Cx43 HC, fully open state, transition histogram",[1]; [8],216 ± 74 pS
same,"conductance γ of Cx43 HC, all-point histogram","[1]; Figure 3C, 100 μM ^10Panx1 extracellular",201 ± 36 pS
same,inhibition of Cx43 HC opening activity (in words),"[1]; Gap19 intracellular / ^10Panx1 extracellular, 100-500 μM (Gap19 100–200 μM)",Inhibited; also recorded: concentration-dependent and significant inhibition; also recorded: inhibits Cx43 HCs over the 100–500 µM concentration range
same,effect on Cx43 HC gating (fully open state vs subconductance state),"[1]; Gap19 intracellular / ^10Panx1 extracellular, from 100 µM",increasing the frequency of subconductance transitions while decreasing the frequency of transitions to the fully open state; also recorded: reduced the propensity of gating to the main open state but increased the incidence of gating to the HC subconductance state
same,relative reduction of Cx43 HC function vs Panx1 channel function (selectivity),"[1]; ^10Panx1 extracellular, all the concentrations tested (100, 200, 500 μM)",more strongly reduces Cx43 HC function than Panx1 channel function at all the concentrations tested
same,flickering frequency (fast-flickering closures) of Panx1 channel,[2]; 100 µM ^10Panx1 extracellular,67 Hz
same,nominal open probability (NPo) of Panx1 channels,"[2]; 100 μM ^10Panx1 extracellular, N = 11 cells, n = 106 traces",0.28 ± 0.03
same,reduction of NPo of Panx1 channels,[2]; 100 μM ^10Panx1 extracellular,26.0% and ~ 25%
same,flickering frequency (fast-flickering closures) of Panx1 channel,[2]; 200 µM ^10Panx1 extracellular,84 Hz
same,nominal open probability (NPo) of Panx1 channels,"[2]; 200 μM ^10Panx1 extracellular, N = 12 cells, n = 116 traces",0.19 ± 0.01
same,reduction of NPo of Panx1 channels,[2]; 200 μM ^10Panx1 extracellular,49.5%
same,flickering frequency (fast-flickering closures) of Panx1 channel,[2]; 500 µM ^10Panx1 extracellular,146 Hz
same,nominal open probability (NPo) of Panx1 channels,"[2]; 500 μM ^10Panx1 extracellular, N = 11 cells, n = 76 traces",0.13 ± 0.02
same,reduction of NPo of Panx1 channels,[2]; 500 μM ^10Panx1 extracellular,66.0%
same,inhibition of Panx1 channel-opening activity (in words),"[2]; ^10Panx1 extracellular, 100, 200 and 500 µM",Concentration-Dependently Inhibited
same,"effect on open-state events of Panx1, all-point histograms","[2]; ^10Panx1 extracellular, 100 and 200 μM, Figure 1C",clearly decreased the frequency of open-state events; also recorded: open-state peaks decreased in height while the closed-state peaks increased
same,subconductance gating of Panx1 channels,"[2]; ^10Panx1 extracellular, Figure 1",did not induce the subconductance gating of Panx1 channels
same,interaction with the pore of the channel protein,[3],some evidence pointing to an interaction with the pore of the channel protein
same,effect on Cx46 HC peak currents,[4],partially inhibit Cx46 HC peak currents
same,effect on ATP release from Panx1-overexpressing cells,[5],inhibits ATP release
same,selectivity for Cx43 or Panx1 channels,[6],good selectivity
